In PubChem BioAssay AID330 (DTP/NCI, 2004):
Where “and” joins values, the source holds several entries; their conditions need not be identical. Identical values can stand only once. Toxic doses and inconclusive results are not listed. The calls were made as follows: active = survival T/C of 150% or more; inactive = T/C below 125% in these data.

System: P388 leukemia ip, CD2F1 mice, survival T/C
Experiment: NCI In Vivo Anticancer Drug Screen. Data for tumor model P388 Leukemia (intraperitoneal) in CD2F1 (CDF1) mice
Settings: endpoint: median survival time, higher = longer survival
Summary of the method: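 Mice carrying the transplanted tumor received test compound or vehicle. Survival was recorded in each group, and the value is the treated-group measurement divided by that of the vehicle-treated control group.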

[1] = dose: 25.0 mg/kg/injection, schedule: Q01DX009 (ip), vehicle: saline
[2] = dose: 50.0 mg/kg/injection, schedule: Q01DX009 (ip), vehicle: saline
[3] = dose: 100.0 mg/kg/injection, schedule: Q01DX009 (ip), vehicle: saline
[4] = dose: 200.0 mg/kg/injection, schedule: Q01DX009 (ip), vehicle: saline
[5] = dose: 60.0 mg/kg/injection, schedule: Q01DX005 (ip), vehicle: Klucel (hydroxypropylcellulose) (HPC)
[6] = dose: 120.0 mg/kg/injection, schedule: Q01DX005 (ip), vehicle: Klucel (hydroxypropylcellulose) (HPC)
[7] = dose: 240.0 mg/kg/injection, schedule: Q01DX005 (ip), vehicle: Klucel (hydroxypropylcellulose) (HPC)
[8] = dose: 60.0 mg/kg/injection, schedule: Q01DX005 (ip), vehicle: saline with Tween-80
[9] = dose: 120.0 mg/kg/injection, schedule: Q01DX005 (ip), vehicle: saline with Tween-80
[10] = dose: 240.0 mg/kg/injection, schedule: Q01DX005 (ip), vehicle: saline with Tween-80
[11] = dose: 25.0 mg/kg/injection, schedule: Q01DX009 (ip), vehicle: saline with Tween-80
[12] = dose: 50.0 mg/kg/injection, schedule: Q01DX009 (ip), vehicle: saline with Tween-80
[13] = dose: 100.0 mg/kg/injection, schedule: Q01DX009 (ip), vehicle: saline with Tween-80
[14] = dose: 200.0 mg/kg/injection, schedule: Q01DX009 (ip), vehicle: saline with Tween-80
[15] = dose: 50.0 mg/kg/injection, schedule: Q01DX005 (ip), vehicle: saline
[16] = dose: 100.0 mg/kg/injection, schedule: Q01DX005 (ip), vehicle: saline
[17] = dose: 200.0 mg/kg/injection, schedule: Q01DX005 (ip), vehicle: saline
[18] = dose: 100.0 mg/kg/injection, schedule: Q04DX002 (ip), vehicle: saline with Tween-80
[19] = dose: 200.0 mg/kg/injection, schedule: Q04DX002 (ip), vehicle: saline with Tween-80

Measured: T/C

CCN(CC)C1=NS(=O)(=O)c2ccccc2C(=O)C1C (stereo not drawn)
inactive: dose: 100.0 mg/kg/injection, schedule: Q04DX002 (ip), vehicle: Klucel (hydroxypropylcellulose) (HPC) 102 % of control | dose: 200.0 mg/kg/injection, schedule: Q04DX002 (ip), vehicle: Klucel (hydroxypropylcellulose) (HPC) 100 % of control | dose: 400.0 mg/kg/injection, schedule: Q04DX002 (ip), vehicle: Klucel (hydroxypropylcellulose) (HPC) 100 % of control

Nc1ccn(C2OC3COC2C3O)c(=O)n1 (stereo not drawn)
inactive: [1] 112 % of control | dose: 50.0 mg/kg/injection, schedule: Q01DX009 (ip), vehicle: saline + alcohol 100 % of control | [2] 110 % of control | dose: 100.0 mg/kg/injection, schedule: Q01DX009 (ip), vehicle: saline + alcohol 105 % of control | [3] 116 % of control | dose: 200.0 mg/kg/injection, schedule: Q01DX009 (ip), vehicle: saline + alcohol 112 % of control | [4] 117 % of control | dose: 400.0 mg/kg/injection, schedule: Q01DX009 (ip), vehicle: saline + alcohol 112 % of control | dose: 400.0 mg/kg/injection, schedule: Q01DX009 (ip), vehicle: saline 122 % of control | dose: 800.0 mg/kg/injection, schedule: Q01DX009 (ip), vehicle: saline + alcohol 114 % of control

CCC[CH2][GeH][CH2]CCC.CCC[CH2][Ge]([CH2]CCC)[CH2]CCC
inactive: [2] 98 % of control | [3] 88 % of control | [4] 98 % of control

C1CCN(CN2CCCCC2)CC1
inactive: [2] 104 % of control | [3] 108 % of control

CCOC(=O)c1c(C(=O)Nc2ccccc2)c(-c2ccccc2)n(NC(N)=O)c1C
inactive: dose: 50.0 mg/kg/injection, schedule: Q01DX005 (ip), vehicle: saline with Tween-80 104 % of control | dose: 100.0 mg/kg/injection, schedule: Q01DX005 (ip), vehicle: saline with Tween-80 105 % of control | dose: 200.0 mg/kg/injection, schedule: Q01DX005 (ip), vehicle: saline with Tween-80 98 % of control

CN1N(C)P(=S)(Oc2ccccc2)N(C)N(C)P1(=S)Oc1ccccc1 (stereo not drawn)
inactive: [5] 98 % of control | [6] 98 % of control | [7] 93 % of control

C=C(COC(=O)Nc1cc(Cl)ccc1C)C(=O)O
inactive: dose: 50.0 mg/kg/injection, schedule: Q01DX009 (ip), vehicle: Klucel (hydroxypropylcellulose) (HPC) 105 % of control

COc1cc(/C=C/[N+](=O)[O-])cc(Br)c1O
inactive: dose: 30.0 mg/kg/injection, schedule: Q01DX005 (ip), vehicle: saline with Tween-80 119 % of control | [8] 110 % of control and 113 % of control | [9] 102 % of control and 122 % of control

O=S(=O)(c1cnccc1N1CCN(CCO)CC1)N1CCCC1
inactive: [2] 106 % of control | [3] 101 % of control | [4] 87 % of control

CC(C)N(C(=O)c1cccc(C(=O)N(C(C)C)C(C)C)n1)C(C)C
inactive: [8] 101 % of control | [9] 95 % of control | [10] 95 % of control

CC(=O)Nc1ccc(S(N)(=O)=O)cc1
inactive: [1] 96 % of control | [2] 95 % of control | [3] 96 % of control | [4] 102 % of control

CC(N)C(=O)NC(CC(=O)O)C(=O)O (stereo not drawn)
inactive: dose: 12.5 mg/kg/injection, schedule: Q01DX009 (ip), vehicle: saline 95 % of control | [1] 86 % of control | [2] 90 % of control | [3] 94 % of control | [4] 92 % of control

CCOC(=O)c1c(N)ssc1=S
inactive: [2] 100 % of control | [3] 97 % of control | [4] 105 % of control

CCCCCC/C(CC(SCC)c1ccccc1Cl)=N\NC(N)=O (stereo not drawn)
inactive: dose: 60.0 mg/kg/injection, schedule: Q01DX005 (ip), vehicle: saline + Tween-80 + alcohol 105 % of control | dose: 120.0 mg/kg/injection, schedule: Q01DX005 (ip), vehicle: saline + Tween-80 + alcohol 97 % of control | dose: 240.0 mg/kg/injection, schedule: Q01DX005 (ip), vehicle: saline + Tween-80 + alcohol 100 % of control

CSc1nc2c(nnn2C2OCC(O)C(O)C2O)c(=O)n1C (stereo not drawn)
inactive: [8] 102 % of control | [9] 99 % of control | [10] 96 % of control

CSc1nsc(SC)c1C(N)=O
inactive: [5] 99 % of control | [6] 98 % of control | [7] 105 % of control

CC=C(C)c1ccccc1 (mixture of isomers)
inactive: [11] 104 % of control | [12] 100 % of control | [13] 103 % of control | [14] 105 % of control

NC(=O)c1n[nH][nH]c1=O
inactive: [15] 115 % of control | [16] 105 % of control | [17] 115 % of control

O=C(Oc1cccc2cccnc12)c1ccc2ccccc2n1
inactive: [18] 100 % of control | [19] 96 % of control

COC(=O)C1=C[C@H]2O[C@H]2[C@H](O)C1
inactive: dose: 1.5 mg/kg/injection, schedule: Q01DX005 (ip), vehicle: Klucel (hydroxypropylcellulose) (HPC) 100 % of control | dose: 3.0 mg/kg/injection, schedule: Q01DX005 (ip), vehicle: Klucel (hydroxypropylcellulose) (HPC) 106 % of control | dose: 6.0 mg/kg/injection, schedule: Q01DX005 (ip), vehicle: Klucel (hydroxypropylcellulose) (HPC) 101 % of control | dose: 12.0 mg/kg/injection, schedule: Q01DX005 (ip), vehicle: Klucel (hydroxypropylcellulose) (HPC) 100 % of control

CN(C)C=Nc1cc(Cl)c(Cl)cc1Cl
inactive: dose: 12.5 mg/kg/injection, schedule: Q01DX009 (ip), vehicle: saline with Tween-80 108 % of control | [11] 106 % of control | [12] 106 % of control

COC1=C(OC)C(=O)C(COC2CCCCO2)=CC1=O (stereo not drawn)
inactive: dose: 7.5 mg/kg/injection, schedule: Q01DX005 (ip), vehicle: saline with Tween-80 98 % of control | dose: 15.0 mg/kg/injection, schedule: Q01DX005 (ip), vehicle: saline with Tween-80 103 % of control

NC(CCSCNc1ncnc2c1ncn2C1OC(CO)C(O)C1O)C(=O)O (stereo not drawn)
inactive: [18] 97 % of control | [19] 93 % of control | dose: 400.0 mg/kg/injection, schedule: Q04DX002 (ip), vehicle: saline with Tween-80 93 % of control

CCC(c1ccccc1)C(C#N)c1ccccc1 (stereo not drawn)
inactive: [11] 95 % of control | [12] 95 % of control | [13] 94 % of control | [14] 90 % of control

Nc1cnns1
inactive: dose: 11.25 mg/kg/injection, schedule: Q01DX009 (ip), vehicle: water 100 % of control | dose: 22.5 mg/kg/injection, schedule: Q01DX009 (ip), vehicle: water 102 % of control | dose: 45.0 mg/kg/injection, schedule: Q01DX009 (ip), vehicle: water 105 % of control | dose: 90.0 mg/kg/injection, schedule: Q01DX009 (ip), vehicle: water 119 % of control | dose: 180.0 mg/kg/injection, schedule: Q01DX009 (ip), vehicle: water 105 % of control

CNc1nc(N)nc(N)c1N1CCN(c2ccc(C(=O)O)cc2)CC1
inactive: [5] 91 % of control | [6] 93 % of control | [7] 87 % of control

O=C(O)Cc1c[nH]c2ccccc12
inactive: dose: 100.0 mg/kg/injection, schedule: Q01DX001 (ip), vehicle: saline with Tween-80 105 % of control | dose: 200.0 mg/kg/injection, schedule: Q01DX001 (ip), vehicle: saline with Tween-80 100 % of control | dose: 400.0 mg/kg/injection, schedule: Q01DX001 (ip), vehicle: saline with Tween-80 99 % of control

Nc1c(Cl)cc(C(=O)O)cc1Cl
inactive: [11] 95 % of control | [12] 90 % of control | [13] 87 % of control | [14] 100 % of control

[NH-]c1ncnc2[nH]c(C[N-]C(Cc3cnc[nH]3)C(=O)O)nc12.[Pd+2] (stereo not drawn)
inactive: [15] 90 % of control | [16] 97 % of control | [17] 94 % of control

COc1ccc(NC(=O)c2ccc3c(c2)OCO3)cc1
inactive: dose: 12.5 mg/kg/injection, schedule: Q01DX009 (ip), vehicle: other 108 % of control | dose: 25.0 mg/kg/injection, schedule: Q01DX009 (ip), vehicle: other 103 % of control | dose: 50.0 mg/kg/injection, schedule: Q01DX009 (ip), vehicle: other 94 % of control | dose: 100.0 mg/kg/injection, schedule: Q01DX009 (ip), vehicle: other 95 % of control | dose: 200.0 mg/kg/injection, schedule: Q01DX009 (ip), vehicle: other 91 % of control
